# Measured values as given in ChEMBL document CHEMBL5247607, “Design, synthesis and biological evaluation of a new series of arylidene indanones as small molecules for targeted therapy of non-small cell lung carcinoma and prostate cancer” (Eur J Med Chem, 2022).
# The source made the active and inactive calls. The rule behind the calls is not given here.
# Experiments:
# [1] = system: A549; test: Induction of apoptosis in human A549 cells assessed as activation of caspase-3 by measuring caspase-3 negative cells at IC50 incubated for 24 hrs by flow cytometry analysis (reference value: 91.1%); assay type: functional
# [2] = system: A549; test: Induction of mitochondrial membrane potential loss in human A549 cells assessed as depolarized cells at IC50 incubated for 24 hrs by JC-1 staining based flow cytometry assay (reference value: 6.9%); assay type: functional
# [3] = system: PANC-1; test: Cytotoxicity against human PANC-1 cells assessed as inhibition of cell growth incubated for 24 hrs by MTT assay; assay type: functional, cell-based; settings: PANC-1, 24 h
# [4] = system: PANC-1; test: Induction of apoptosis in human PANC-1 cells assessed as late apoptotic cells at IC50 incubated for 24 hrs by annexin V-FITC/PI staining based flow cytometry analysis (reference value: 0.2%); assay type: functional
# [5] = Selectivity index, ratio of IC50 for cytotoxicity against human CCD 19Lu cells to IC50 for cytotoxicity against human A549 cells; assay type: toxicity, cell-based; settings: CCD 19Lu cells versus A549 cells, read-out: Ratio IC50
# [6] = system: A549; test: Induction of morphological changes in human A549 cells assessed as chromatin condensation at 5.99 uM incubated for 24 hrs by acridine orange/ethidium bromide staining based fluorescence microscopic analysis; assay type: functional, cell-based
# [7] = system: PANC-1; test: Induction of morphological changes in human PANC-1 cells assessed as cell shrinkage at 5.99 uM incubated for 24 hrs by acridine orange/ethidium bromide staining based fluorescence microscopic analysis; assay type: functional
# [8] = system: A549; test: Induction of apoptosis in human A549 cells assessed as increase in intracellular calcium level at 5.99 uM by Fluo-4-AM staining based flow cytometry analysis; assay type: functional, cell-based
# [9] = Cytotoxicity against human hTERT-HPNE cells assessed as inhibition of cell growth incubated for 24 hrs by MTT assay; assay type: toxicity, cell-based
# [10] = system: A549; test: Inhibition of DNA synthesis in human A549 cells at 5.99 uM incubated for 24 hrs by BrdU incorporation assay relative to control; assay type: functional
# [11] = system: A549; test: Induction of apoptosis in human A549 cells assessed as total apoptotic cells at IC50 incubated for 24 hrs by annexin V-FITC/PI staining based flow cytometry analysis relative to control; assay type: functional
# [12] = system: PANC-1; test: Induction of apoptosis in human PANC-1 cells assessed as activation of caspase-3 by measuring caspase-3 negative cells at IC50 incubated for 24 hrs by flow cytometry analysis (reference value: 98.5 %); assay type: functional
# [13] = system: PANC-1; test: Induction of apoptosis in human PANC-1 cells assessed as early apoptotic cells at IC50 incubated for 24 hrs by annexin V-FITC/PI staining based flow cytometry analysis (reference value: 0%); assay type: functional
# [14] = system: PANC-1; test: Induction of apoptosis in human PANC-1 cells assessed as total cell viability at IC50 incubated for 24 hrs by annexin V-FITC/PI staining based flow cytometry analysis (reference value: 84.4%); assay type: functional
# [15] = system: A549; test: Induction of mitochondrial membrane potential loss in human A549 cells assessed as polarized cells at IC50 incubated for 24 hrs by JC-1 staining based flow cytometry assay (reference value: 90.6%); assay type: functional
# [16] = system: A549; test: Induction of apoptosis in human A549 cells assessed as total cell viability at IC50 incubated for 24 hrs by annexin V-FITC/PI staining based flow cytometry analysis (reference value: 85.6 %); assay type: functional
# [17] = system: PANC-1; test: Induction of morphological changes in human PANC-1 cells assessed as formation of apoptotic bodies at 5.99 uM incubated for 24 hrs by acridine orange/ethidium bromide staining based fluorescence microscopic analysis; assay type: functional, cell-based
# [18] = system: PANC-1; test: Induction of morphological changes in human PANC-1 cells assessed as chromatin condensation at 5.99 uM incubated for 24 hrs by acridine orange/ethidium bromide staining based fluorescence microscopic analysis; assay type: functional, cell-based
# [19] = system: A549; test: Cytotoxicity against human A549 cells assessed as inhibition of cell growth incubated for 24 hrs by MTT assay; assay type: functional, cell-based; settings: A549, 24 h
# [20] = system: A549; test: Induction of morphological changes in human A549 cells assessed as cell shrinkage at 5.99 uM incubated for 24 hrs by acridine orange/ethidium bromide staining based fluorescence microscopic analysis; assay type: functional
# [21] = Selectivity index, ratio of IC50 for cytotoxicity against human hTERT-HPNE cells to IC50 for cytotoxicity against human PANC-1 cells; assay type: toxicity, cell-based; settings: hTERT-HPNE cells versus PANC-1 cells, read-out: Ratio IC50
# [22] = system: A549; test: Induction of apoptosis in human A549 cells assessed as activation of caspase-3 by measuring caspase-3 positive cells at IC50 incubated for 24 hrs by flow cytometry analysis (reference value: 8.4%); assay type: functional
# [23] = system: PANC-1; test: Induction of apoptosis in human PANC-1 cells assessed as activation of caspase-3 by measuring caspase-3 positive cells at IC50 incubated for 24 hrs by flow cytometry analysis (reference value: 1.8%); assay type: functional
# [24] = system: A549; test: Induction of morphological changes in human A549 cells assessed as formation of apoptotic bodies at 5.99 uM incubated for 24 hrs by acridine orange/ethidium bromide staining based fluorescence microscopic analysis; assay type: functional, cell-based
# [25] = system: PANC-1; test: Induction of mitochondrial membrane potential loss in human PANC-1 cells assessed as polarized cells at IC50 incubated for 24 hrs by JC-1 staining based flow cytometry assay (reference value: 92%); assay type: functional
# [26] = system: PANC-1; test: Induction of mitochondrial membrane potential loss in human PANC-1 cells assessed as depolarized cells at IC50 incubated for 24 hrs by JC-1 staining based flow cytometry assay (reference value: 5%); assay type: functional
# [27] = molecular target: Cathepsin D (Homo sapiens) (UniProt P07339); test: Inhibition of cathepsin D (unknown origin) at 100 uM relative to control
# [28] = system: A549; test: Induction of apoptosis in human A549 cells assessed as early apoptotic cells at IC50 incubated for 24 hrs by annexin V-FITC/PI staining based flow cytometry analysis (reference value: 5.6%); assay type: functional
# [29] = system: A549; test: Induction of apoptosis in human A549 cells assessed as late apoptotic cells at IC50 incubated for 24 hrs by annexin V-FITC/PI staining based flow cytometry analysis (reference value: 6.5 %); assay type: functional
# [30] = Cytotoxicity against human CCD 19Lu cells assessed as inhibition of cell growth incubated for 24 hrs by MTT assay; assay type: toxicity, cell-based
# [31] = system: PANC-1; test: Inhibition of DNA synthesis in human PANC-1 cells at 5.99 uM incubated for 24 hrs by BrdU incorporation assay relative to control; assay type: functional
# [32] = system: PANC-1; test: Induction of apoptosis in human PANC-1 cells assessed as total apoptotic cells at IC50 incubated for 24 hrs by annexin V-FITC/PI staining based flow cytometry analysis relative to control; assay type: functional
# [33] = system: PANC-1; test: Inhibition of DNA synthesis in human PANC-1 cells at 6.51 uM incubated for 24 hrs by BrdU incorporation assay relative to control; assay type: functional
# [34] = molecular target: Procathepsin L (Homo sapiens) (UniProt P07711); test: Inhibition of cathepsin L (unknown origin) at 100 uM
# [35] = system: PANC-1; test: Induction of morphological changes in human PANC-1 cells assessed as cell shrinkage at 6.51 uM incubated for 24 hrs by acridine orange/ethidium bromide staining based fluorescence microscopic analysis; assay type: functional
# [36] = system: PANC-1; test: Induction of morphological changes in human PANC-1 cells assessed as formation of apoptotic bodies at 6.51 uM incubated for 24 hrs by acridine orange/ethidium bromide staining based fluorescence microscopic analysis; assay type: functional, cell-based
# [37] = system: PANC-1; test: Induction of morphological changes in human PANC-1 cells assessed as chromatin condensation at 6.51 uM incubated for 24 hrs by acridine orange/ethidium bromide staining based fluorescence microscopic analysis; assay type: functional, cell-based
# Sequence of Cathepsin D (Homo sapiens) (P07339 65-162 limits assumed): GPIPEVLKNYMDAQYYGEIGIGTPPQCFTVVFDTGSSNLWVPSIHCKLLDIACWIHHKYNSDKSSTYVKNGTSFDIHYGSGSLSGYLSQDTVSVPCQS
# Sequence of Cathepsin D (Homo sapiens) (P07339 169-412 limits assumed): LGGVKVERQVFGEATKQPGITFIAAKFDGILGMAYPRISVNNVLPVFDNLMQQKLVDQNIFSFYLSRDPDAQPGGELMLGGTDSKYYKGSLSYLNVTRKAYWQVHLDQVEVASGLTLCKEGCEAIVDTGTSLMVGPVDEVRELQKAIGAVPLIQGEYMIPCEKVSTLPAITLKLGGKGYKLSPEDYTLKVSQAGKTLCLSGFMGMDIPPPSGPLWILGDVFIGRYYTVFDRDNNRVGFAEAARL
# Sequence of Procathepsin L (Homo sapiens) (P07711 114-333 limits assumed): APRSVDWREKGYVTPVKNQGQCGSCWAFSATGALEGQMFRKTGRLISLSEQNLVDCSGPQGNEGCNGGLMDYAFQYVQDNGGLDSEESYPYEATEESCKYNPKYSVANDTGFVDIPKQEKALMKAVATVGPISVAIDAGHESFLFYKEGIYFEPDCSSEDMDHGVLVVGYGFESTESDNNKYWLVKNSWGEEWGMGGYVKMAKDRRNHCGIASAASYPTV
inhibition [27] [%],SMILES,IC50 [3] [µM],Activity [4] [%],selectivity ratio [5],IC50 at 24 h [9] [µM],Activity [12] [%],Activity [13] [%],Activity [14] [%],IC50 [19] [µM],selectivity ratio [21],Activity [23] [%],Activity [25] [%],Activity [26] [%],IC50 at 24 h [30] [µM],further results
52.7,O=C1/C(=C/c2ccc(N3CCCC3)cc2)Cc2cc3c(cc21)OCO3,< 11.7,3.4,> 5.25,> 1500,89.6,0.6,76.3,< 11.7,> 128,11.3,82,16.7,61.5,Activity [1]: 92.5%; Activity [2]: 65%; Activity [6]: Active; Activity [7]: Active; Activity [8]: Active; inhibition at 5.99 µM [10]: 4.41%; Activity [11]: 85.4%; Activity [15]: 76.4%; Activity [16]: 12.5%; Activity [17]: Active; Activity [18]: Active; Activity [20]: Active; Activity [22]: 7.4%; Activity [24]: Active; Activity [28]: 65.4%; Activity [29]: 20%; inhibition at 5.99 µM [31]: 31%
27.5,CN(C)c1ccc(/C=C2\Cc3cc4c(cc3C2=O)OCO4)cc1,< 12.7,15.9,> 24.6,> 1630,96.5,24.7,50.4,66.2,> 128,4.7,83.9,11,> 1630,Activity [32]: 40.6%; inhibition at 6.51 µM [33]: 16.9%; inhibition [34]: inactive; Activity [35]: Active; Activity [36]: Active; Activity [37]: Active
